Measured values from patent publication US20090311237A1, “Combination therapy using a soluble hyaluronidase and a bisphosphonate” (priority 2008, published 2009).
Where “and” joins values, the source holds several entries; their conditions need not be identical. Equal entries are not always repeated.

Test: Phase 1 Stage 1 clinical pharmacokinetics of SC ZA co-administered with rHuPH20
Format: in vivo, human
Conditions: for MAT (mean absorption time = SC MRT − IV MRT) / MAT, Mean for the dose group / MAT, Median for the dose group: 100 mL, 24000 Units rHuPH20
Method: A pharmacokinetic study of zoledronic acid (ZA) co-administered with rHuPH20 in human subjects was conducted. The primary objective of the study was to determine the bioavailability of zoledronic acid dosed via subcutaneous (SC) co-administration with human recombinant hyaluronidase PH20 (rHuPH20). […] The patients were administered the prescribed dosage formulations as follows: Cohorts 1-5 were administered a single subcutaneous infusion in a dosage volume of 100 ml at a rate of 3 mL/min. […] The dosing solution is administered via needle or catheter into the SC space of the left anterior thigh (midway between the anterior iliac crest and the cephalad border of the patella). For cohorts 1-5, the dosing solutions were administered by a controlled rate infusion pump at approximately 3 mL/minute. […] The dosing solutions were administered by syringe push bolus injection. […] Serum concentration of ZA was determined using a qualified LC-MS-MS assay after derivatization with diazomethane (Zhu, L S et al. (2006) Rapid Commun. […] The assay range was from 2.0 to 400 ng/mL with a lower limit of quantitation (LLOQ) at 2.0 ng/mL. […] Non-compartmental analysis was used for derivation of primary and secondary pharmacokinetic (PK) parameters. […] Summary statistics (mean, standard deviation, and median) were calculated using JMP or Microsoft Excel.

[1] = Subj 1, ZA […] SC, inf 0.554 hr, PH20 23928 U
[2] = Subj 8, ZA […] SC, inf 0.531 hr, PH20 22944 U
[3] = Subj 11, ZA […] SC, inf 0.554 hr, PH20 23928 U
[4] = Subj 16, ZA […] SC, inf 0.553 hr, PH20 23904 U
[5] = Subj 18, ZA […] SC, inf […], PH20 23304 U
[6] = Subj 21, ZA […] SC, inf 0.556 hr, PH20 24000 U
[7] = Subj 25, ZA […] SC, inf 0.549 hr, PH20 23736 U
[8] = Subj 26, ZA […] SC, inf […], PH20 23088 U
[9] = Subj 27, ZA 0.0196 mg/kg SC, inf […], PH20 23976 U
[10] = Subj 29, ZA 0.0339 mg/kg SC, inf 0.556 hr, PH20 24000 U
[11] = Subj 31, ZA […] SC, inf 0.554 hr, PH20 23952 U
[12] = Subj 32, ZA […] SC, inf 0.556 hr, PH20 24000 U
[13] = Subj 37, ZA 0.0791 mg/kg SC, inf 0.556 hr, PH20 24000 U
[14] = Subj 38, ZA 0.0706 mg/kg SC, inf 0.554 hr, PH20 23952 U
[15] = Subj 39, ZA 0.0691 mg/kg SC, inf 0.552 hr, PH20 23856 U
[16] = Subj 41, ZA 0.0653 mg/kg SC, inf […], PH20 12216 U
[17] = Subj 46, ZA 0.0877 mg/kg SC, inf 0.276 hr, PH20 12000 U
[18] = Subj 51, ZA […] SC, inf 0.251 hr, PH20 6024 U
[19] = Subj 63, ZA 0.0820 mg/kg SC, inf […], PH20 6000 U
[20] = Subj 67, ZA 0.0717 mg/kg SC, inf […], PH20 2880 U
[21] = Subj 68, ZA 0.0608 mg/kg SC, inf […], PH20 2880 U
[22] = Subj 70, ZA 0.0776 mg/kg SC, inf […], PH20 2928 U
[23] = Subj 71, ZA 0.0781 mg/kg SC, inf […], PH20 6000 U
[24] = Subj 74, ZA 0.0794 mg/kg SC, inf […], PH20 6000 U
[25] = Subj 77, ZA […] SC, inf […], PH20 6000 U
[26] = ZA 0.25 mg SC + 24000 U rHuPH20, individual subjects
[27] = ZA 0.25 mg SC + 24000 U rHuPH20, mean, n=3
[28] = ZA 0.25 mg SC + 24000 U rHuPH20, median, n=3
[29] = ZA 0.5 mg SC + 24000 U rHuPH20, individual subjects
[30] = ZA 0.5 mg SC + 24000 U rHuPH20, mean, n=3
[31] = ZA 0.5 mg SC + 24000 U rHuPH20, median, n=3
[32] = ZA 1 mg SC + 24000 U rHuPH20, individual subjects
[33] = ZA 1 mg SC + 24000 U rHuPH20, mean, n=3
[34] = ZA 1 mg SC + 24000 U rHuPH20, median, n=3
[35] = ZA 2 mg SC + 24000 U rHuPH20, individual subjects

## O=P(O)(O)C(O)(Cn1ccnc1)P(=O)(O)O [ZA, 1-hydroxy-2-(1H-imidazol-1-yl)ethylidene-1,1-bisphosphonic acid]
[1]
  AUC (0-inf)/D: 0.006638 kg·h/mL
  CL: 2.511 mL/min/kg
  Cmax/D: 0.001722 kg/mL
  Vss: 0.44318 L/kg
  Vz: 0.40861 L/kg
[2]
  AUC (0-inf)/D: 0.01019 kg·h/mL
  CL: 1.635 mL/min/kg
  Cmax/D: 0.001772 kg/mL
  Vss: 0.45621 L/kg
  Vz: 0.43706 L/kg
[3]
  AUC (0-inf)/D: 0.009322 kg·h/mL
  CL: 1.7878 mL/min/kg
  Cmax/D: 0.002073 kg/mL
  Vss: 0.36447 L/kg
  Vz: 0.33982 L/kg
[4]
  AUC (0-inf)/D: 0.007097 kg·h/mL
  CL: 2.3485 mL/min/kg
  Cmax/D: 0.001739 kg/mL
  Vss: 0.44893 L/kg
  Vz: 0.44919 L/kg
[5]
  AUC (0-inf)/D: 0.00801 kg·h/mL
  CL: 2.0807 mL/min/kg
  Cmax/D: 0.002012 kg/mL
  Vss: 0.40254 L/kg
  Vz: 0.40424 L/kg
[6]
  AUC (0-inf)/D: 0.009748 kg·h/mL
  CL: 1.7097 mL/min/kg
  Cmax/D: 0.002152 kg/mL
  Vss: 0.34316 L/kg
  Vz: 0.33661 L/kg
[7]
  AUC (0-inf)/D: 0.006861 kg·h/mL
  CL: 2.4293 mL/min/kg
  Cmax/D: 0.00176 kg/mL
  Vss: 0.77861 L/kg
  Vz: 1.64423 L/kg
[8]
  AUC (0-inf)/D: 0.01198 kg·h/mL
  CL: 1.391 mL/min/kg
  Cmax/D: 0.002609 kg/mL
  Vss: 0.42621 L/kg
  Vz: 1.01736 L/kg
[9]
  AUC (0-inf)/D: 0.006142 kg·h/mL
  CL: 2.7135 mL/min/kg
  Cmax/D: 0.001276 kg/mL
  Vss: 0.91422 L/kg
  Vz: 1.53448 L/kg
[10]
  AUC (0-inf)/D: 0.007095 kg·h/mL
  CL: 2.349 mL/min/kg
  Cmax/D: 0.001853 kg/mL
  Vss: 0.66499 L/kg
  Vz: 1.76877 L/kg
[11]
  AUC (0-inf)/D: 0.007665 kg·h/mL
  CL: 2.1745 mL/min/kg
  Cmax/D: 0.001699 kg/mL
  Vss: 0.67025 L/kg
  Vz: 1.66854 L/kg
[12]
  AUC (0-inf)/D: 0.008441 kg·h/mL
  CL: 1.9745 mL/min/kg
  Cmax/D: 0.001677 kg/mL
  Vss: 1.2493 L/kg
  Vz: 3.76429 L/kg
[13]
  AUC (0-inf)/D: 0.007838 kg·h/mL
  CL: 2.1265 mL/min/kg
  Cmax/D: 0.001656 kg/mL
  Vss: 1.39565 L/kg
  Vz: 4.2995 L/kg
[14]
  AUC (0-inf)/D: 0.009027 kg·h/mL
  CL: 1.8463 mL/min/kg
  Cmax/D: 0.001657 kg/mL
  Vss: 1.52947 L/kg
  Vz: 3.90822 L/kg
[15]
  AUC (0-inf)/D: 0.01052 kg·h/mL
  CL: 1.584 mL/min/kg
  Cmax/D: 0.002127 kg/mL
  Vss: 1.20501 L/kg
  Vz: 3.57183 L/kg
[16]
  AUC (0-inf)/D: 0.01128 kg·h/mL
  CL: 1.478 mL/min/kg
  Cmax/D: 0.002159 kg/mL
  Vss: 2.37143 L/kg
  Vz: 5.48166 L/kg
[17]
  AUC (0-inf)/D: 0.008516 kg·h/mL
  CL: 1.957 mL/min/kg
  Cmax/D: 0.002429 kg/mL
  Vss: 1.09639 L/kg
  Vz: 3.51646 L/kg
[18]
  AUC (0-inf)/D: 0.009685 kg·h/mL
  CL: 1.721 mL/min/kg
  Cmax/D: 0.001817 kg/mL
  Vss: 1.27627 L/kg
  Vz: 3.04413 L/kg
[19]
  AUC (0-inf)/D: 0.008077 kg·h/mL
  CL: 2.0635 mL/min/kg
  Cmax/D: 0.002037 kg/mL
  Vss: 1.473 L/kg
  Vz: 3.66662 L/kg
[20]
  AUC (0-inf)/D: 0.01012 kg·h/mL
  CL: 1.648 mL/min/kg
  Cmax/D: 0.002176 kg/mL
  Vss: 1.03944 L/kg
  Vz: 2.6134 L/kg
[21]
  AUC (0-inf)/D: 0.01035 kg·h/mL
  CL: 1.61 mL/min/kg
  Cmax/D: 0.002368 kg/mL
  Vss: 1.59221 L/kg
  Vz: 3.88814 L/kg
[22]
  AUC (0-inf)/D: 0.008898 kg·h/mL
  CL: 1.873 mL/min/kg
  Cmax/D: 0.002771 kg/mL
  Vss: 0.98673 L/kg
  Vz: 3.15269 L/kg
[23]
  AUC (0-inf)/D: 0.008873 kg·h/mL
  CL: 1.8783 mL/min/kg
  Cmax/D: 0.002535 kg/mL
  Vss: 0.87424 L/kg
  Vz: 3.12259 L/kg
[24]
  AUC (0-inf)/D: 0.006994 kg·h/mL
  CL: 2.3828 mL/min/kg
  Cmax/D: 0.001511 kg/mL
  Vss: 1.84253 L/kg
  Vz: 4.88924 L/kg
[25]
  AUC (0-inf)/D: 0.008412 kg·h/mL
  CL: 1.9812 mL/min/kg
  Cmax/D: 0.001824 kg/mL
  Vss: 1.60873 L/kg
  Vz: 4.21769 L/kg
[26]
  AUC (0-12h): 29.30 ng·h/mL
  AUC (0-∞): 30.00 ng·h/mL and 31.77 ng·h/mL
  AUC (0-∞)/D: 0.00926 kg·h/mL and 0.00674 kg·h/mL and 0.00971 kg·h/mL
  Cmax/D: 0.00205 kg/mL and 0.00174 kg/mL and 0.00173 kg/mL
  MRT: 4.21 h
  T½elim: 1.88 h and 2.44 h and 2.10 h
[27]
  AUC (0-∞)/D: 0.00857 kg·h/mL
  Cmax/D: 0.00184 kg/mL
  T½elim: 2.14 h
[28]
  AUC (0-∞)/D: 0.00926 kg·h/mL
  Cmax/D: 0.00174 kg/mL
  T½elim: 2.10 h
ZA 0.25 mg SC, individual subjects
  MAT (mean absorption time = SC MRT − IV MRT): 1.47 h and 1.03 h and 2.31 h
ZA 0.25 mg SC, n=3
  MAT, Mean for the dose group: 1.60 h
  MAT, Median for the dose group: 1.47 h
[29]
  AUC (0-12h): 66.33 ng·h/mL
  AUC (0-∞): 68.26 ng·h/mL
  AUC (0-∞)/D: 0.00709 kg·h/mL and 0.00766 kg·h/mL and 0.00968 kg·h/mL
  Cmax/D: 0.00174 kg/mL and 0.00192 kg/mL and 0.00214 kg/mL
  MRT: 3.35 h
  T½elim: 2.24 h and 2.27 h (2×)
[30]
  AUC (0-∞)/D: 0.00814 kg·h/mL
  Cmax/D: 0.00193 kg/mL
  T½elim: 2.26 h
[31]
  AUC (0-∞)/D: 0.00766 kg·h/mL
  Cmax/D: 0.00192 kg/mL
  T½elim: 2.27 h
ZA 0.5 mg SC, individual subjects
  MAT (mean absorption time = SC MRT − IV MRT): 1.00 h and 1.11 h
ZA 0.5 mg SC, n=3
  MAT, Mean for the dose group: 1.03 h
  MAT, Median for the dose group: 1.00 h
[32]
  AUC (0-12h): 137.25 ng·h/mL
  AUC (0-∞): 158.68 ng·h/mL
  AUC (0-∞)/D: 0.00701 kg·h/mL and 0.01176 kg·h/mL and 0.00624 kg·h/mL
  Cmax/D: 0.00174 kg/mL and 0.00247 kg/mL and 0.00128 kg/mL
  MRT: 6.25 h
  Tmax: 0.73 h
  T½elim: 12.87 h and 13.95 h and 8.85 h
[33]
  AUC (0-∞)/D: 0.00834 kg·h/mL
  Cmax/D: 0.00183 kg/mL
  T½elim: 11.89 h
[34]
  AUC (0-∞)/D: 0.00701 kg·h/mL
  Cmax/D: 0.00174 kg/mL
  T½elim: 12.87 h
ZA 1 mg SC, individual subjects
  MAT (mean absorption time = SC MRT − IV MRT): 1.41 h and 1.00 h
ZA 1 mg SC, n=3
  MAT, Mean for the dose group: 1.36 h
  MAT, Median for the dose group: 1.41 h
[35]
  AUC (0-12h): 213.87 ng·h/mL and 236.51 ng·h/mL
  AUC (0-∞): 245.47 ng·h/mL and 293.51 ng·h/mL
  AUC (0-∞)/D: 0.00739 kg·h/mL and 0.00809 kg·h/mL and 0.00825 kg·h/mL
  Cmax/D: 0.00188 kg/mL and 0.00175 kg/mL and 0.00165 kg/mL
  MRT: 10.59 h
